According to publication PMC7615676, “Short-course combination treatment for experimental chronic Chagas disease” (Science translational medicine, 2023):
“And” between values parts separate entries of the source, which are not always exact repeats. Equal values may be shown once. Read-outs that look alike come from different tables or passages of the source.

Key:
[1] = intrinsic clearance in human liver microsomes; assay type: in vitro ADME; settings: for half-life at 0.5 μM: read-out: T 1/2 human
Method: Immediately at time zero and at several serial times points up to 30 min, an aliquot of the incubation mixture was removed and mixed with acetonitrile to stop the reaction. Internal standard was added to all samples, the samples centrifuged to sediment precipitated protein and the plates then sealed prior to HPLC-MS/MS analysis. Metabolic stability expressed as a percentage of the parent molecule was calculated using the peak area ratio (compound peak area/internal standard peak area) of different compounds remaining after each incubation time compared to time zero of the incubation. The half-life (t1/2) was calculated using the following equation: t1/2=−ln(2)/k, where k is the turn-over rate constant of the ln (percent remaining) vs time regression.
CLint was calculated from the half-life (t1/2) using the following equations:
CLint (ml/min/g liver) = (0.693/(t1/2) x (ml of incubation/mg microsomal protein) x (mg microsomal protein/g liver).

[2] = plasma protein binding, equilibrium dialysis; assay type: in vitro ADME; settings: pH 7.4, mouse plasma, read-out: Mouse PPB % (converted)
Method: In vitro plasma protein binding was measured in mouse and human plasma using equilibrium dialysis at a nominal concentration of 2 μM. The RED inserts were placed in the 48 wells of the Teflon Plate (Pierce). Samples were prepared by mixing the test compound with plasma at the appropriate concentrations to yield a final drug concentration of 2 μM. Triplicate aliquots of plasma containing compounds at a concentration of 2 μM were pipetted to plasma side (red) of the insert, and PBS (phosphate buffered saline) pH 7.4 was placed into the receiver side (white) of the insert. The plate was covered with the sealing tape and incubated in a 37 °C orbital shaker water bath at approximately 150 rpm for 4 h. Following incubation, samples were prepared in a mixed matrix configuration. Aliquots of samples were pipetted into 96-well plates, and precipitation buffer was added to protein precipitate the samples. Samples were vortexed to mix, then centrifuged for 15 min at 3700 rpm and 4 °C. The supernatant was assayed directly by LC−MS/MS. The following equation was used to calculate the percentage bound drug fraction using this equilibrium dialysis method
% unbound = (buffer chamber]/[plasma chamber) x100

[3] = test system: chronic T. cruzi infection (CL Brener) in BALB/c mice; assay: bioluminescent mouse model of chronic Chagas disease; assay type: in vivo, Trypanosoma cruzi
Method: Compound 2 was evaluated in a bioluminescent mouse model of Chagas disease designed to mimic chronic infections. This model successfully differentiates the clinically used drugs from the clinically invalidated CYP51 inhibitors ([21]). Key features of this model include immunosuppression of mice following cessation of treatment to allow detection of parasite relapses, and ex vivo bioluminescence imaging that allows tissue-specific visualization of parasites. Treatments are considered efficacious if there is no evidence of bioluminescence during in vivo (mouse) and ex vivo (organ/tissue) imaging following immunosuppression ([38]). Under these experimental conditions, compound 2 was able to prevent parasite relapse in 2 of the 6 mice treated orally twice daily for 10 days at 50 mg/kg (Table S1). Increasing the dose to 100 mg/kg or extending treatment duration to 21 days provided similar partial efficacy rates.
Experiments followed a similar protocol to that described in ([21]). All animals were female (BALB/cAnNCrlC mice, 6-8 weeks old, strain code: 028, supplier: Charles River (UK)). We have previously shown that there are no differences in the bioluminescence profiles between infected males and females ([77]). Animals were maintained under specific pathogen-free conditions in individually ventilated cages. They experienced a 12-hour light/dark cycle, with access to food and water ad libitum. Mice were randomly selected and distributed into cages on arrival day by a Named Animal Care and Welfare Officer (NACWO), at LSHTM biological service facility (BSF). For efficacy experiments animals were randomly selected from the cages and ear/tail tagged on the infection day, starting from number 1. The same mouse ID was kept until the experimental endpoint. Mice were infected by i.p injection with 1x10^3 trypomastigotes derived from SCID mouse blood ([67]). To confirm infection, mice were imaged around the peak of parasite load. […] Treatment initiated in the chronic stage of infection ranging between 90 and 127 days post-infection. Drugs were administered by oral gavage (~200 μl), and vehicle only (0.5% w/v hydroxypropylmethylcellulose with 0.4% v/v Tween 80 and 0.5% v/v benzyl alcohol) was administered to control mice. Total number of animals for each study arm is shown in the relevant figures. To detect residual infection, mice were immunosuppressed using cyclophosphamide (at 200 mg/kg) by ip injection every 4 days for a maximum of three doses. For in vivo imaging, mice were injected ip with 150 mg/kg D-luciferin in Dulbecco’s Ca^2+/Mg^2+-free PBS, then anaesthetized using 2.5% (v/v) isofluorane in oxygen. Images were obtained using an IVIS Lumina II system (Caliper Life Science) 10−20 min after D-luciferin administration. The detection threshold was established from uninfected mice. Organs/tissue samples were assessed by ex vivo imaging as described previously ([21]). The limit of detection in this system is less than 20 parasites ([29]).

[4] = test system: wild-type T. cruzi epimastigotes; assay: epimastigote drug sensitivity assay, wild-type; assay type: cell-based; settings: Trypanosoma cruzi
Method: (§1) T. cruzi epimastigotes from the Silvio strain (MHOM/BR/78/Silvio; clone X10/7A) were grown at 28°C in RTH/FBS medium ([80]).
(§2) T. cruzi epimastigote assays carried out as described previously ([43]).

[5] = test system: T. cruzi epimastigotes bearing mutations in cytochrome b; assay: epimastigote drug sensitivity assay, cytochrome b mutant / resistant lines; assay type: cell-based, Trypanosoma cruzi; settings: for EC50: Trypanosoma cruzi; for fold change from WT, L197I: compound 3-resistant line (L197I); for fold change from WT, F222L: compound 5-resistant line (F222L)
Method: as §1, §2
Compound-resistant cell lines were generated by subculturing clones of wild-type T. cruzi epimastigotes in the continuous presence of compound 3 or compound 5. Starting at sublethal concentrations, drug concentrations in 3 independent cultures were increased in a stepwise manner, usually by 2-fold. When parasites were able to survive and grow in compound concentrations equivalent to >30-fold their established EC50 value, they were cloned by limiting dilution in the presence of compound. Three independent clones were selected from each compound for further study.

[6] = test system: chronic T. cruzi infection (CL Brener) in BALB/c mice; assay: bioluminescent mouse model of chronic Chagas disease; assay type: in vivo, Trypanosoma cruzi; settings: 5 days
[7] = Table 2, wild-type epimastigotes, read-out: EC50 WT

Structure (SMILES)	Cl int human [1] [ml/min/g liver]	half-life at 0.5 μM [1] [h]	fraction unbound at 4 h, 2 μM [2]	No. cured/ no. tested ([3]; 50 mg/kg bid oral, 10 days)	EC50 [4, 7] [nM]	EC50 ([5]; read-out: EC50 F222L) [nM]	EC50 ([5]; read-out: EC50 L197I) [nM]	fold change from WT, L197I [5] [fold]	fold change from WT, F222L [5] [fold]	other results
COc1cc(Cl)ccc1-c1c(C)[nH]c2nc(N)nc(C)c12 [Compound 3, 5-(4-Chloro-2-methoxyphenyl)-4,6-dimethyl-7H-pyrrolo[2,3-d]pyrimidin-2-amine]	0.4	> 2.32	0.03	4/6	6 ± 0.2	1120 ± 63	115 ± 7	19	183	No. cured/ no. tested ([3]; 50 mg/kg bid oral, 20 days (changed to 11 bid + 9 qd)): 2/6; tolerability in infected mice ([3]; 50 mg/kg bid, 20-day regimen): tolerability issues; EC50 ([4]; read-out: EC50 wild-type): 4.6 ± 0.2 nM; EC50 ([4]; read-out: EC50 wild-type epimastigotes): 11.3 ± 0.5 nM; EC50 ([5]; read-out: EC50 G36C/L197F cytb line): 3 ± 0.1 nM; EC50 ([5]; read-out: EC50 G36C/L197I cytb line): 258 ± 7 nM; EC50 ([5]; read-out: EC50 L197F cytb line): 3.7 ± 0.1 nM; EC50 ([5]; read-out: EC50 compound 3-resistant clone RES1): 107 ± 5.4 nM; EC50 ([5]; read-out: EC50 compound 3-resistant clone RES3): 166 ± 14 nM; cross-resistance of G36C and L197I epimastigotes ([5]; versus wild-type): 23 fold; 95% confidence interval for no-relapse ([6]; Fig. 3, compound 3 50 mg/kg bid): 0.19 − 0.81; animals relapsed ([6]; compound 3 monotherapy 50 mg/kg bid, oral): three out of six
O=C(Cn1ccnc1[N+](=O)[O-])NCc1ccccc1 [Benznidazole, reference compound]	–	–	–	–	–	–	–	–	–	No. cured/ no. tested ([3]; 100 mg/kg qd oral, 10 days): 3/3; No. cured/ no. tested ([3]; 100 mg/kg qd oral, 20 days): 6/6; 95% confidence interval for no-relapse ([6]; Fig. 3, BNZ 30 mg/kg qd, Adjusted Wald): 0.01 − 0.58; 95% confidence interval for no-relapse ([6]; Fig. 6, BNZ 30 mg/kg qd): 0.06 − 0.8
COc1ccc(-c2c(C)[nH]c3nc(N)nc(C)c23)c(OC)c1 [Compound 4, 5-(2,4-Dimethoxyphenyl)-4,6-dimethyl-7H-pyrrolo[2,3-d]pyrimidin-2-amine]	0.8	1.1	0.22	–	88 ± 3	6380 ± 436	432 ± 15	5	73	95% confidence interval for no-relapse ([6]; Fig. 6, compound 4 50 mg/kg bid): 0.01 − 0.58
COc1cc(F)ccc1-c1c(C)[nH]c2nc(N)nc(C)c12 [Compound 2, 5-(4-Fluoro-2-methoxyphenyl)-4,6-dimethyl-7H-pyrrolo[2,3-d]pyrimidin-2-amine]	0.6	1.6	0.18	2 of the 6 and 2/6	33 ± 2	3620 ± 322	117 ± 5	4	109	No. cured/ no. tested ([3]; 50 mg/kg bid oral, 21 days): 2/6; No. cured/ no. tested ([3]; 100 mg/kg bid oral, 10 days (changed to once daily after day 1)): 2/4; toxicity in infected mice ([3]; 100 mg/kg bid, after first day of treatment): two mice were culled due to toxicity
